Results as given in patent publication US12077503B2, “Substituted cyclic amides and their use as herbicides” (FMC CORPORATION, priority 2015, dated 2024).

Columns and labels:
Assay in all cases: Test C preemergence
Type in all cases: in vivo
Settings in all cases: scale 0 to 100, 0 no effect, 100 complete control
[1] = system: barnyardgrass (Echinochloa crus-galli)
Excerpt: (§1) Seeds of plant species selected from blackgrass (Alopecurus myosuroides), ryegrass, Italian (Italian ryegrass, Lolium multiflorum), wheat (winter wheat, Triticum aestivum), Galium (catchweed bedstraw, Galium aparine), corn (Zea mays), crabgrass, large (large crabgrass, Digitaria sanguinalis), foxtail, giant (giant foxtail, Setaria faberii), johnsongrass (Sorghum halepense), lambsquarters (Chenopodium album), morningglory (Ipomoea coccinea), nutsedge, yellow (yellow nutsedge, Cyperus esculentus), pigweed (Amaranthus retroflexus), ragweed (common ragweed, Ambrosia elatior), soybean (Glycine max), barnyardgrass (Echinochloa crus-galli), oilseed rape (Brassica napus), waterhemp (common waterhemp, Amaranthus rudis) and velvetleaf (Abutilon theophrasti) were planted into a blend of loam soil and sand and treated preemergence with test chemicals formulated in a non-phytotoxic solvent mixture which included a surfactant.
(§2) At the same time, plants selected from these crop and weed species and also Kochia (Kochia scoparia), oat, wild (wild oat, Avena fatua), and chickweed (common chickweed, Stellaria media) were planted in pots containing Sunshine Redi-Earth® planting medium comprising spaghnum peat moss, vermiculite, starter nutrients and dolomitic limestone and treated with postemergence applications of test chemicals formulated in the same manner. Plants ranged in height from 2 to 18 cm (1- to 4-leaf stage) for postemergence treatments. Treated plants and controls were maintained in a greenhouse for 13 to 15 d, after which time all species were compared to controls and visually evaluated. Plant response ratings, summarized in Table C, are based on a scale of 0 to 100 where 0 is no effect and 100 is complete control. A dash (-) response means no test result.

[2] = system: blackgrass (Alopecurus myosuroides)
Excerpt: as §1, §2

corn (Zea mays) = system: corn (Zea mays)
Excerpt: as §1, §2

[3] = system: crabgrass, large (large crabgrass, Digitaria sanguinalis)
Excerpt: as §1, §2

[4] = system: foxtail, giant (giant foxtail, Setaria faberii)
Excerpt: as §1, §2

[5] = system: johnsongrass (Sorghum halepense)
Excerpt: as §1, §2

[6] = system: lambsquarters (Chenopodium album)
Excerpt: as §1, §2

[7] = system: morningglory (Ipomoea coccinea)
Excerpt: as §1, §2

[8] = system: nutsedge, yellow (yellow nutsedge, Cyperus esculentus)
Excerpt: as §1, §2

[9] = system: oilseed rape (Brassica napus)
Excerpt: as §1, §2

[10] = system: pigweed (Amaranthus retroflexus)
Excerpt: as §1, §2

[11] = system: ragweed (common ragweed, Ambrosia elatior)
Excerpt: as §1, §2

[12] = system: ryegrass, Italian (Italian ryegrass, Lolium multiflorum)
Excerpt: as §1, §2

soybean (Glycine max) = system: soybean (Glycine max)
Excerpt: as §1, §2

[13] = system: velvetleaf (Abutilon theophrasti)
Excerpt: as §1, §2

[14] = system: waterhemp (common waterhemp, Amaranthus rudis)
Excerpt: as §1, §2

[15] = system: wheat (winter wheat, Triticum aestivum)
Excerpt: as §1, §2

## CN1CC(c2cccc(OC(F)(F)C(F)F)c2)C(C(=O)Nc2ccc(F)cc2F)C1=O (stereo not drawn) [Compound 393]
[1]; 31 g ai/ha
  Plant response rating, Barnyardgrass: 90
[1]; 62 g ai/ha
  Plant response rating, Barnyardgrass: 90
[1]; 125 g ai/ha
  Plant response rating, Barnyardgrass: 95
[1]; 250 g ai/ha
  Plant response rating, Barnyardgrass: 95
[2]; 31 g ai/ha
  Plant response rating, Blackgrass: 10
[2]; 62 g ai/ha
  Plant response rating, Blackgrass: 55
[2]; 125 g ai/ha
  Plant response rating, Blackgrass: 70
[2]; 250 g ai/ha
  Plant response rating, Blackgrass: 90
Corn (Zea mays); 31 g ai/ha
  Plant response rating, Corn: 0
Corn (Zea mays); 62 g ai/ha
  Plant response rating, Corn: 40
Corn (Zea mays); 125 g ai/ha
  Plant response rating, Corn: 55
Corn (Zea mays); 250 g ai/ha
  Plant response rating, Corn: 70
[3]; 31 g ai/ha
  Plant response rating, Crabgrass, Large: 95
[3]; 62 g ai/ha
  Plant response rating, Crabgrass, Large: 95
[3]; 125 g ai/ha
  Plant response rating, Crabgrass, Large: 95
[3]; 250 g ai/ha
  Plant response rating, Crabgrass, Large: 98
[4]; 31 g ai/ha
  Plant response rating, Foxtail, Giant: 90
[4]; 62 g ai/ha
  Plant response rating, Foxtail, Giant: 95
[4]; 125 g ai/ha
  Plant response rating, Foxtail, Giant: 95
[4]; 250 g ai/ha
  Plant response rating, Foxtail, Giant: 95
[5]; 31 g ai/ha
  Plant response rating, Johnsongrass: 70
[5]; 62 g ai/ha
  Plant response rating, Johnsongrass: 80
[5]; 125 g ai/ha
  Plant response rating, Johnsongrass: 85
[5]; 250 g ai/ha
  Plant response rating, Johnsongrass: 85
[6]; 31 g ai/ha
  Plant response rating, Lambsquarters: 55
[6]; 62 g ai/ha
  Plant response rating, Lambsquarters: 75
[6]; 125 g ai/ha
  Plant response rating, Lambsquarters: 75
[6]; 250 g ai/ha
  Plant response rating, Lambsquarters: 85
[7]; 31 g ai/ha
  Plant response rating, Morningglory: 0
[7]; 62 g ai/ha
  Plant response rating, Morningglory: 10
[7]; 125 g ai/ha
  Plant response rating, Morningglory: 10
[7]; 250 g ai/ha
  Plant response rating, Morningglory: 10
[8]; 31 g ai/ha
  Plant response rating, Nutsedge, Yellow: 0
[8]; 62 g ai/ha
  Plant response rating, Nutsedge, Yellow: 0
[8]; 125 g ai/ha
  Plant response rating, Nutsedge, Yellow: 0
[8]; 250 g ai/ha
  Plant response rating, Nutsedge, Yellow: 0
[9]; 31 g ai/ha
  Plant response rating, Oilseed Rape: 0
[9]; 62 g ai/ha
  Plant response rating, Oilseed Rape: 40
[9]; 125 g ai/ha
  Plant response rating, Oilseed Rape: 80
[9]; 250 g ai/ha
  Plant response rating, Oilseed Rape: 85
[10]; 31 g ai/ha
  Plant response rating, Pigweed: 70
[10]; 62 g ai/ha
  Plant response rating, Pigweed: 75
[10]; 125 g ai/ha
  Plant response rating, Pigweed: 85
[10]; 250 g ai/ha
  Plant response rating, Pigweed: 90
[11]; 31 g ai/ha
  Plant response rating, Ragweed: 35
[11]; 62 g ai/ha
  Plant response rating, Ragweed: 35
[11]; 125 g ai/ha
  Plant response rating, Ragweed: 40
[11]; 250 g ai/ha
  Plant response rating, Ragweed: 65
[12]; 62 g ai/ha
  Plant response rating, Ryegrass, Italian: 30
[12]; 125 g ai/ha
  Plant response rating, Ryegrass, Italian: 30
[12]; 250 g ai/ha
  Plant response rating, Ryegrass, Italian: 45
Soybean (Glycine max); 62 g ai/ha
  Plant response rating, Soybean: 10
Soybean (Glycine max); 125 g ai/ha
  Plant response rating, Soybean: 15
Soybean (Glycine max); 250 g ai/ha
  Plant response rating, Soybean: 30
[13]; 62 g ai/ha
  Plant response rating, Velvetleaf: 35
[13]; 125 g ai/ha
  Plant response rating, Velvetleaf: 50
[13]; 250 g ai/ha
  Plant response rating, Velvetleaf: 80
[14]; 62 g ai/ha
  Plant response rating, Waterhemp: 80
[14]; 125 g ai/ha
  Plant response rating, Waterhemp: 85
[14]; 250 g ai/ha
  Plant response rating, Waterhemp: 90
[15]; 62 g ai/ha
  Plant response rating, Wheat: 20
[15]; 125 g ai/ha
  Plant response rating, Wheat: 35
[15]; 250 g ai/ha
  Plant response rating, Wheat: 70

## CN1CC(c2cccc(C(F)(F)F)c2)C(C)(C(=O)Nc2ccccc2F)C1=O (stereo not drawn) [Compound 428]
[1]; 31 g ai/ha
  Plant response rating, Barnyardgrass: 90
[1]; 62 g ai/ha
  Plant response rating, Barnyardgrass: 95
[1]; 125 g ai/ha
  Plant response rating, Barnyardgrass: 95
[1]; 250 g ai/ha
  Plant response rating, Barnyardgrass: 98
[2]; 31 g ai/ha
  Plant response rating, Blackgrass: 0
[2]; 62 g ai/ha
  Plant response rating, Blackgrass: 0
[2]; 125 g ai/ha
  Plant response rating, Blackgrass: 30
[2]; 250 g ai/ha
  Plant response rating, Blackgrass: 30
Corn (Zea mays); 31 g ai/ha
  Plant response rating, Corn: 15
Corn (Zea mays); 62 g ai/ha
  Plant response rating, Corn: 25
Corn (Zea mays); 125 g ai/ha
  Plant response rating, Corn: 55
Corn (Zea mays); 250 g ai/ha
  Plant response rating, Corn: 70
[3]; 31 g ai/ha
  Plant response rating, Crabgrass, Large: 90
[3]; 62 g ai/ha
  Plant response rating, Crabgrass, Large: 95
[3]; 125 g ai/ha
  Plant response rating, Crabgrass, Large: 98
[3]; 250 g ai/ha
  Plant response rating, Crabgrass, Large: 98
[4]; 31 g ai/ha
  Plant response rating, Foxtail, Giant: 85
[4]; 62 g ai/ha
  Plant response rating, Foxtail, Giant: 90
[4]; 125 g ai/ha
  Plant response rating, Foxtail, Giant: 90
[4]; 250 g ai/ha
  Plant response rating, Foxtail, Giant: 95
[5]; 31 g ai/ha
  Plant response rating, Johnsongrass: 5
[5]; 62 g ai/ha
  Plant response rating, Johnsongrass: 50
[5]; 125 g ai/ha
  Plant response rating, Johnsongrass: 65
[5]; 250 g ai/ha
  Plant response rating, Johnsongrass: 75
[6]; 31 g ai/ha
  Plant response rating, Lambsquarters: 0
[6]; 62 g ai/ha
  Plant response rating, Lambsquarters: 10
[6]; 125 g ai/ha
  Plant response rating, Lambsquarters: 35
[6]; 250 g ai/ha
  Plant response rating, Lambsquarters: 65
[7]; 31 g ai/ha
  Plant response rating, Morningglory: 0
[7]; 62 g ai/ha
  Plant response rating, Morningglory: 0
[7]; 125 g ai/ha
  Plant response rating, Morningglory: 0
[7]; 250 g ai/ha
  Plant response rating, Morningglory: 0
[8]; 31 g ai/ha
  Plant response rating, Nutsedge, Yellow: 0
[8]; 62 g ai/ha
  Plant response rating, Nutsedge, Yellow: 0
[8]; 125 g ai/ha
  Plant response rating, Nutsedge, Yellow: 0
[8]; 250 g ai/ha
  Plant response rating, Nutsedge, Yellow: 30
[9]; 31 g ai/ha
  Plant response rating, Oilseed Rape: 0
[9]; 62 g ai/ha
  Plant response rating, Oilseed Rape: 0
[9]; 125 g ai/ha
  Plant response rating, Oilseed Rape: 0
[9]; 250 g ai/ha
  Plant response rating, Oilseed Rape: 15
[10]; 31 g ai/ha
  Plant response rating, Pigweed: 10
[10]; 62 g ai/ha
  Plant response rating, Pigweed: 0
[10]; 125 g ai/ha
  Plant response rating, Pigweed: 0
[10]; 250 g ai/ha
  Plant response rating, Pigweed: 40
[11]; 31 g ai/ha
  Plant response rating, Ragweed: 0
[11]; 62 g ai/ha
  Plant response rating, Ragweed: 0
[11]; 125 g ai/ha
  Plant response rating, Ragweed: 0
[11]; 250 g ai/ha
  Plant response rating, Ragweed: 0
[12]; 62 g ai/ha
  Plant response rating, Ryegrass, Italian: 40
[12]; 125 g ai/ha
  Plant response rating, Ryegrass, Italian: 40
[12]; 250 g ai/ha
  Plant response rating, Ryegrass, Italian: 45
Soybean (Glycine max); 62 g ai/ha
  Plant response rating, Soybean: 0
Soybean (Glycine max); 125 g ai/ha
  Plant response rating, Soybean: 0
Soybean (Glycine max); 250 g ai/ha
  Plant response rating, Soybean: 15
[13]; 62 g ai/ha
  Plant response rating, Velvetleaf: 0
[13]; 125 g ai/ha
  Plant response rating, Velvetleaf: 0
[13]; 250 g ai/ha
  Plant response rating, Velvetleaf: 10
[14]; 62 g ai/ha
  Plant response rating, Waterhemp: 0
[14]; 125 g ai/ha
  Plant response rating, Waterhemp: 10
[14]; 250 g ai/ha
  Plant response rating, Waterhemp: 35
[15]; 62 g ai/ha
  Plant response rating, Wheat: 15
[15]; 125 g ai/ha
  Plant response rating, Wheat: 50
[15]; 250 g ai/ha
  Plant response rating, Wheat: 80
